In patent US5602277A, “Substituted benzene derivatives useful as neuraminidase inhibitors” (priority 1995, dated 1997):
Counter-ions that a name gives are not always drawn.

system: influenza virus neuraminidase; assay type: biochemical; conditions: compound @ 3.3 mM; substrate 75 μM, pH 6.5, 5 min at 37° C.

For `O=C(O)c1ccc(NC(=O)C(F)(F)F)cc1` [Example 9, 4-(Trifluoroacetamido)benzoic acid], the “% Inhibition” value was 56%.

same assay, conditions: compound @ 3.5 mM; substrate 75 μM, pH 6.5, 5 min at 37° C.

In the case of `N=C(N)Cc1cccc(C(=O)O)c1` [Example 23, 3-(2-Amino-2-imino)ethylbenzoic acid complex with water (5:1)], the “% Inhibition” value is reported as 22%.

same assay, conditions: substrate 75 μM, pH 6.5, 5 min at 37° C.

First: 3-[(Aminoiminomethyl)amino]-4-[(methylamino)carbonyl]benzoic acid hydrochloride, complex with water and methanol (4:4:4:1 and 5:5:5:1) [Example 53]
Second: CC(=O)Nc1ccc(C(=O)O)cc1CC(O)CO (single isomer, unassigned; isomer a) [Example 35, 4-Acetylamino-3-(2',3'-dihydroxypropyl)benzoic acid, solvate with water [5:1] (Isomer A)]
The IC50 of the first is 4000-fold lower: 5 µM for the first, 20000 µM for the second. The first is the more potent here.

Going from `N=C(N)NC(=N)Nc1ccccc1` [Example 3, 1-Phenylbiguanide] to `CC(=S)Nc1ccc(C(=O)O)cc1` [Example 10, 4-Thioacetamidobenzoic acid], the IC50 falls from 5500 µM to 1000 µM (5.5-fold). The second is the more potent here.

`N=C(N)Nc1cccc(C(=O)O)c1` [Example 17, 3-Guanidinobenzoic acid hydrochloride (2:1)] and `N#CNc1cccc(C(=O)O)c1` [Example 21, 3-Cyanoaminobenzoic acid hydrate (5:1)] are within 1.5-fold of each other in IC50: 5000 µM for the first, 4000 µM for the second.

First: CC(=O)Nc1ccc(C(=O)O)cc1N [Example 37, 4-Acetylamino-3-aminobenzoic acid hydrochloride (2:1)]
Second: CC(C)C(=O)Nc1ccc(C(=O)O)cc1NC(=N)N [Example 40, 3-[(Aminoiminomethyl)amino]-4-(2-methylpropionylamino)benzoic acid hydrate [2:1]]
The IC50 of the first is 14-fold higher: 14000 µM for the first, 1000 µM for the second. The second is the more potent here.

First: CC(=O)Nc1ccc(C(=O)O)cc1C=NO [Example 42, 4-Acetylamino-3-[(hydroxylimino)methyl]benzoic acid hydrate (4:1)]
Second: CS(=O)(=O)Nc1ccc(C(=O)O)cc1NC(=N)N [Example 43, 3-[(Aminoiminomethyl)amino]-4-[(methylsulfonyl)amino]benzoic acid, solvate with water (2:1)]
The IC50 of the first is 55-fold higher: 5500 µM for the first, 100 µM for the second. The second is the more potent here.

`N=C(N)Nc1cc(NC(=N)N)cc(C(=O)O)c1` [Example 49, 3,5-Bis-[(aminoiminomethyl)amino]benzoic acid hydrochloride, solvate with ethanol (10:15:2)] and `N=C(N)Nc1cc(N)cc(C(=O)O)c1` [Example 50, Sodium 3-amino-5-[(aminoimino)methyl]aminobenzoate hydrate] are within 1.5-fold of each other in IC50: 1500 µM for the first, 2000 µM for the second.

Compared with `N=C(N)Nc1cc(C=NO)cc(C(=O)O)c1` [Example 51, 3-[(Aminoiminomethyl)amino]-5-[(N-hydroxylimino)methyl]benzoic acid hydrate (4:3)], `CC(C)OC(C)C.CS(=O)(=O)Nc1c(CO)cc(C(=O)O)cc1NC(=N)N` [Example 52, 3-(Aminoiminomethyl)amino-5-hydroxymethyl-4-(methylsulfonyl)aminobenzoic acid hydrate complex with diisopropyl ether (10:10:1)] is 2.5-fold higher in IC50: 800 µM for the first, 2000 µM for the second.

Compared with `CC(=O)Nc1ccc(C(=O)O)cc1CC(O)CO` (single isomer, unassigned; isomer a) [Example 35, 4-Acetylamino-3-(2',3'-dihydroxypropyl)benzoic acid, solvate with water [5:1] (Isomer A)], `CC(=O)Nc1ccc(C(=O)O)cc1CCO` [Example 33, β-(2-N-Acetylamino-5-carboxyphenyl)ethanol] is higher in “% Inhibition at 7 nM” value: 25% for the first, 42% for the second.

Going from `CC(=O)Nc1ccc(C(=O)O)cc1CC(O)CO` (single isomer, unassigned; isomer b) [Example 36, 4-Acetylamino-3-(2',3'-dihydroxypropyl)benzoic acid, solvate with water [4:3](Isomer B)] to `CC(=O)Nc1ccc(C(=O)O)cc1CO.[Na+].[OH-]` [Example 31, 4-Acetylamino-3-hydroxymethylbenzoic acid, complex with NaOH [5:3]], the “% Inhibition at 7 nM” value falls from 35% to 31%.

Compared with `N=C(N)Nc1ccccc1` [Example 1, Phenylguanidine carbonate hydrate (2:1:1)], `N=C(N)NC(=N)Nc1ccccc1` [Example 3, 1-Phenylbiguanide] is higher in “% Inhibition at 7 nM” value: 44% for the first, 75% for the second.

Going from `CC(=O)Nc1ccc(C(=O)O)cc1` [Example 4, 4-Acetylaminobenzoic acid] to `CC(=O)Nc1ccc(CC(=O)O)cc1` [Example 26, 4-(Acetamido)phenylacetic acid], the “% Inhibition at 7 nM” value falls from 39% to 15%.

Going from `CC(=O)Nc1ccc(S(=O)(=O)O)cc1` [Example 6, 4-Acetylaminobenzenesulfonic acid hydrate (4:1)] to `CC(=O)Nc1ccc(P(=O)(O)O)cc1` [Example 7, 4-Acetylaminophenylphosphonic acid], the “% Inhibition at 7 nM” value rises from 30% to 32%.

Going from `CS(=O)(=O)Nc1ccc(C(=O)O)cc1` [Example 16, 4-[(Methylsulfonyl)amino]benzoic acid] to `CNC(=O)c1ccc(C(=O)O)cc1` [Example 27, 4-(Methylaminocarbonyl)benzoic acid], the “% Inhibition at 7 nM” value falls from 34% to 27%.

Going from `N#CN=C(N)Nc1cccc(C(=O)O)c1` [Example 18, 3-[Amino(cyanoimino)methyl]aminobenzoic acid hydrate (4:1)] to `N=C(N)Nc1cc(C(=O)O)ccc1O` [Example 47, 3-[(Aminoiminomethyl)amino]-4-hydroxybenzoic acid hydrochloride (1:1)], the “% Inhibition at 7 nM” value falls from 68% to 33%.

Going from `CC(=O)Nc1ccc(C(=O)O)cc1N` [Example 37, 4-Acetylamino-3-aminobenzoic acid hydrochloride (2:1)] to `COc1ccc(C(=O)O)cc1NC(=N)N` [Example 46, 3-[(Aminoiminomethyl)amino]-4-methoxybenzoic acid hydrochloride (1:1)], the “% Inhibition at 7 nM” value rises from 28% to 46%.

system: HA; conditions: cited from earlier work

For `CC(=O)N[C@H]1[C@H]([C@H](O)[C@H](O)CO)OC(C(=O)O)=C[C@@H]1O` [DANA, 2-deoxy-2,3-didehydro-N-acetylneuraminic acid], the “inhibition of HA in vitro” value is given as “inhibit”.

system: not given; conditions: cited from earlier work

For `CC(=O)N[C@H]1[C@H]([C@H](O)[C@H](O)CO)OC(C(=O)O)=C[C@@H]1O` [DANA, 2-deoxy-2,3-didehydro-N-acetylneuraminic acid], the activity in vivo is listed as “inactive”.
